Measured values: the kinase profiling compilation of Christmann-Franck et al. (2016)
Each block holds one compound with its values, some of them ahead of it.

How the values were obtained:
Assay in all cases: radiometric filter-binding kinase assay
CAMKK1 (human) = CAMKK1 (human) (UniProt Q8N5S9); settings: ATP 20 µM
NEK2 (human) = NEK2 (human) (UniProt P51955); settings: ATP 50 µM
MAPKAPK2 (human) = MAPKAPK2 (human) (UniProt P49137); settings: ATP 20 µM
AKT2 (human) = AKT2 (human) (UniProt P31751); settings: compound 0.01 µM; ATP 50 µM
NEK6 (human) = NEK6 (human) (UniProt Q9HC98); settings: ATP 50 µM
PAK4 (human) = PAK4 (human) (UniProt O96013); settings: ATP 5 µM
Sequence of PAK4 (human) (O96013 whole entry, looked up): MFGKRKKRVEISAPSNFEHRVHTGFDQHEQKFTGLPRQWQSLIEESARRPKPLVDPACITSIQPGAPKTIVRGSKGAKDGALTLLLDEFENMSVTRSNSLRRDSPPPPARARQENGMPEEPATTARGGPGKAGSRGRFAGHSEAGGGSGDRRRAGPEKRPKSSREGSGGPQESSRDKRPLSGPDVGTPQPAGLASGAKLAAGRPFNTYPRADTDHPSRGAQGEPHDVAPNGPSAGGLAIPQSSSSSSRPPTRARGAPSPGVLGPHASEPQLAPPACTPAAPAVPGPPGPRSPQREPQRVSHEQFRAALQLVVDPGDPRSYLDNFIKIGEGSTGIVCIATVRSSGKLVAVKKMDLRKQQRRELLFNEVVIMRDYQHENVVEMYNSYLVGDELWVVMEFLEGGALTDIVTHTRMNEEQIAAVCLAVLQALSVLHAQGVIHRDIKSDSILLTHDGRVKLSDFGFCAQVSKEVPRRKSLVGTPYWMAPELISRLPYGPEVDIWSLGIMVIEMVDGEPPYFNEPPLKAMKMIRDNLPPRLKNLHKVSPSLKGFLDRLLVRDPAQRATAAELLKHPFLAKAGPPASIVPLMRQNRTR

ROCK2 (human) = ROCK2 (human) (UniProt O75116); settings: ATP 20 µM
MAPK15 (human) = MAPK15 (human) (UniProt Q8TD08); settings: ATP 5 µM
CaMK1 (human) = CaMK1 (human) (UniProt Q14012); settings: ATP 50 µM
MAPK13 (human) = MAPK13 (human) (UniProt O15264); settings: compound 0.01 µM; ATP 5 µM
MAPK8 (human) = MAPK8 (human) (UniProt P45983); settings: compound 0.01 µM; ATP 20 µM
MAPK10 (human) = MAPK10 (human) (UniProt P53779); settings: ATP 50 µM
Sequence of MAPK10 (human) (P53779 whole entry, looked up): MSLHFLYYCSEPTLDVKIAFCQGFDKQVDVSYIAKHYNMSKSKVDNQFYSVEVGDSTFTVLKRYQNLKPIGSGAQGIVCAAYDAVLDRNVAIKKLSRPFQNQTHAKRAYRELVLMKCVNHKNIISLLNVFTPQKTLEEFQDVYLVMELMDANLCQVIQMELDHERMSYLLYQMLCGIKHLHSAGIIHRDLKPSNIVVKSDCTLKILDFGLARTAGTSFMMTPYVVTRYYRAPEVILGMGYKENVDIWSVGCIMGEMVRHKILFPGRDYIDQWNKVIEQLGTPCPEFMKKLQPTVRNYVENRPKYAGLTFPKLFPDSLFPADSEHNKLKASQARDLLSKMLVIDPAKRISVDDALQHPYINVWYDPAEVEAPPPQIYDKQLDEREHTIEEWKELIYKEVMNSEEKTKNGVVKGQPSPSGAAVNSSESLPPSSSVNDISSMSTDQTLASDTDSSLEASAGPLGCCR

MAPK9 (human) = MAPK9 (human) (UniProt P45984); settings: ATP 20 µM
PRKCA (human) = PRKCA (human) (UniProt P17252); settings: ATP 20 µM
PLK1 (human) = PLK1 (human) (UniProt P53350); settings: ATP 5 µM
Sequence of PLK1 (human) (P53350 whole entry, looked up): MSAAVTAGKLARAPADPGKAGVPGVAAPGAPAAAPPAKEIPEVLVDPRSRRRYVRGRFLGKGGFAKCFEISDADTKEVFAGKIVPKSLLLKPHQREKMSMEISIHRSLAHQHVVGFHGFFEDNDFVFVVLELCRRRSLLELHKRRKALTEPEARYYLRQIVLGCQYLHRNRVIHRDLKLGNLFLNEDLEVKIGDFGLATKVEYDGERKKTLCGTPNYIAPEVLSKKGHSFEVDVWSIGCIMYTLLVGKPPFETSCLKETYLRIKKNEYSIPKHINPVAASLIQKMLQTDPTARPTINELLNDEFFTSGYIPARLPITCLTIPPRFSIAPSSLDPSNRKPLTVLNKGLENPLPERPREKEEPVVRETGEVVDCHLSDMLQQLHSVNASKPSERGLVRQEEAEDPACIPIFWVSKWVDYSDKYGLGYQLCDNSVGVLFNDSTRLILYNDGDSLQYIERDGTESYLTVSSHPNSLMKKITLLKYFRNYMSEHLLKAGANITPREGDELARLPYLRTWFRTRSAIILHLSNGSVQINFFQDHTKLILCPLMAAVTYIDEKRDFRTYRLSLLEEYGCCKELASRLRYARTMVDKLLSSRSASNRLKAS

MYLK (human) = MYLK (human) (UniProt Q15746); settings: ATP 50 µM
DYRK3 (human) = DYRK3 (human) (UniProt O43781); settings: ATP 5 µM
MELK (human) = MELK (human) (UniProt Q14680); settings: ATP 50 µM
Sequence of MELK (human) (Q14680 whole entry, looked up): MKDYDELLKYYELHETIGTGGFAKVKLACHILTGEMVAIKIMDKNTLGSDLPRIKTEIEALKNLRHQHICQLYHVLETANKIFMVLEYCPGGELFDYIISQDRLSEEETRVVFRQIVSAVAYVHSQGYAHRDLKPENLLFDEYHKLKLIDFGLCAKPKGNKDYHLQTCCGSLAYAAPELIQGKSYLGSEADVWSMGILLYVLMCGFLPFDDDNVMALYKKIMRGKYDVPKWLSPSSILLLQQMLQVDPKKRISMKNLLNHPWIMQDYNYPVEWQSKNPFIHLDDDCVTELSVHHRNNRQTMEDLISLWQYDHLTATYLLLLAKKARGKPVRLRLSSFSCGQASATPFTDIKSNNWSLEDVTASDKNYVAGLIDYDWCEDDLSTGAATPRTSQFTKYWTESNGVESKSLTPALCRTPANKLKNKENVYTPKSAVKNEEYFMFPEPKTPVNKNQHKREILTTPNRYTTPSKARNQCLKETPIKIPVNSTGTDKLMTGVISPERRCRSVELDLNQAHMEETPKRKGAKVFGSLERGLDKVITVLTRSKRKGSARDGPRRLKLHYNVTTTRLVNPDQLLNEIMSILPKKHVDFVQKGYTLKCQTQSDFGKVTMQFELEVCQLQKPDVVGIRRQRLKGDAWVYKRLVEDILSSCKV

MARK3 (human) = MARK3 (human) (UniProt P27448); settings: compound 0.01 µM; ATP 5 µM
CSNK1D (human) = CSNK1D (human) (UniProt P48730); settings: ATP 20 µM
PKN2 (human) = PKN2 (human) (UniProt Q16513); settings: compound 0.01 µM; ATP 5 µM
PDPK1 (human) = PDPK1 (human) (UniProt O15530)
Sequence of PDPK1 (human) (O15530 whole entry, looked up): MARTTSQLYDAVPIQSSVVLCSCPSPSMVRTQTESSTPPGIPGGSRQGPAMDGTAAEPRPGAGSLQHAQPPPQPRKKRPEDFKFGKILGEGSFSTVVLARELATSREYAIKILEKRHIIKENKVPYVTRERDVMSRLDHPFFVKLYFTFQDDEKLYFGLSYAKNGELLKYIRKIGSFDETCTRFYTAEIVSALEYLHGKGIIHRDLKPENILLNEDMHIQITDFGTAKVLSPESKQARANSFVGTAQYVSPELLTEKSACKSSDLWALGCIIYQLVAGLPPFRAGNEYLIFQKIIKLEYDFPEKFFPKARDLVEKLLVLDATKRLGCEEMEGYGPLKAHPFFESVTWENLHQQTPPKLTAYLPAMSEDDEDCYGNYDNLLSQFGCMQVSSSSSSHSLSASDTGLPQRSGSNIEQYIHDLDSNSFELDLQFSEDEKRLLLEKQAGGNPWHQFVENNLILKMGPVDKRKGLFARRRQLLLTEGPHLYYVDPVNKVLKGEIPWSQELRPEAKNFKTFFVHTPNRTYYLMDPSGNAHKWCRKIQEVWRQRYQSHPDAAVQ

PAK7 (human) = PAK7 (human) (UniProt Q9P286); settings: ATP 20 µM
Sequence of PAK7 (human) (Q9P286 whole entry, looked up): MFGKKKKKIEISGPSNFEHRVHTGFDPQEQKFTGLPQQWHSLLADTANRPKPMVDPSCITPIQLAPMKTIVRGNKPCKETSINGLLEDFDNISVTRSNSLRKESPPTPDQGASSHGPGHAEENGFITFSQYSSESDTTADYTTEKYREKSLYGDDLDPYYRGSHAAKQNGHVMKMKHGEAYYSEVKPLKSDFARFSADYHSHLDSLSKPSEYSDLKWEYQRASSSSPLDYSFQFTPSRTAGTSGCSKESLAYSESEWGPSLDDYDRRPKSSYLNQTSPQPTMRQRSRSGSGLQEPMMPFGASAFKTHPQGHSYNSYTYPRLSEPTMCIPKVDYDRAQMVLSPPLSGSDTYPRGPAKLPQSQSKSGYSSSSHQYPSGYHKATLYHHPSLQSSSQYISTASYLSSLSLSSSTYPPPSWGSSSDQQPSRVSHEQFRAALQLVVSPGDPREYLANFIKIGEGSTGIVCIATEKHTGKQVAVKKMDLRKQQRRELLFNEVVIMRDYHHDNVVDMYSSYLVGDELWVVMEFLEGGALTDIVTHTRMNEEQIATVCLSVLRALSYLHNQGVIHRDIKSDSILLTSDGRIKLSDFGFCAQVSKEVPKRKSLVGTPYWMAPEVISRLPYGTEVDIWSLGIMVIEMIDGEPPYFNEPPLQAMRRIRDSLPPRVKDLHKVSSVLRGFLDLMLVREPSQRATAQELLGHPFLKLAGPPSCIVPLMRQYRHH

RPS6KA5 KD1 KD2 (human) = RPS6KA5 KD1 KD2 (human) (UniProt O75582); settings: ATP 20 µM
GSK3B (human) = GSK3B (human) (UniProt P49841); settings: ATP 5 µM
MAPK14 (human) = MAPK14 (human) (UniProt Q16539); settings: compound 0.01 µM; ATP 50 µM
DYRK1A (human) = DYRK1A (human) (UniProt Q13627); settings: compound 0.01 µM; ATP 50 µM
AURKB (human) = AURKB (human) (UniProt Q96GD4); settings: ATP 20 µM
PRKCG (human) = PRKCG (human) (UniProt P05129); settings: ATP 5 µM
AURKC (human) = AURKC (human) (UniProt Q9UQB9); settings: ATP 5 µM
[1] = target: CSNK2A1 or CSNK2A2 (human) (UniProt P19784+P68400); settings: compound 0.01 µM; ATP 5 µM
EEF2K (human) = EEF2K (human) (UniProt O00418); settings: ATP 5 µM
Sequence of EEF2K (human) (O00418 whole entry, looked up): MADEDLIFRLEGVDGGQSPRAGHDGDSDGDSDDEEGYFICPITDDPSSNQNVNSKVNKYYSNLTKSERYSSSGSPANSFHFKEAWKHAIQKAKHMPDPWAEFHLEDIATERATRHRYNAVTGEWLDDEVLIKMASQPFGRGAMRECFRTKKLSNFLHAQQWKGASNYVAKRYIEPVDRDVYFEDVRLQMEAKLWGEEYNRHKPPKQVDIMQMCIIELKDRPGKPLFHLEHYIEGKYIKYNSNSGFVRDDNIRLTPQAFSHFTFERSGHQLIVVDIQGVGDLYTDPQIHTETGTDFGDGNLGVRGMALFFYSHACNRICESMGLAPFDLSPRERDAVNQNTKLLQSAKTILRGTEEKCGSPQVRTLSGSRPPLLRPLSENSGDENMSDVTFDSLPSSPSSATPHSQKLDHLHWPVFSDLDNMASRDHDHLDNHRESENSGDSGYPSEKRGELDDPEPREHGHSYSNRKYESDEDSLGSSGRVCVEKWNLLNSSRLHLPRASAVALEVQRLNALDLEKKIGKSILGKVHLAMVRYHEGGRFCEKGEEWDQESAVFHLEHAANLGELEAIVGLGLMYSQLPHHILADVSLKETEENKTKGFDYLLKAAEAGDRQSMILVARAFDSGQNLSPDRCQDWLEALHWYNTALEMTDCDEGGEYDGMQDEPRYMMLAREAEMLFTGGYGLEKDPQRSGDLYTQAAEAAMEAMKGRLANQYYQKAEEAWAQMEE

MKNK1 (human) = MKNK1 (human) (UniProt Q9BUB5); settings: ATP 50 µM
DYRK2 (human) = DYRK2 (human) (UniProt Q92630); settings: ATP 50 µM
HIPK3 (human) = HIPK3 (human) (UniProt Q9H422); settings: ATP 20 µM
IKBKB (human) = IKBKB (human) (UniProt O14920); settings: ATP 5 µM
NEK7 (human) = NEK7 (human) (UniProt Q8TDX7); settings: ATP 20 µM
MAPKAPK3 (human) = MAPKAPK3 (human) (UniProt Q16644); settings: ATP 20 µM
MKNK2 (human) = MKNK2 (human) (UniProt Q9HBH9); settings: ATP 50 µM

- residual activity (CAMKK1 (human); compound 0.01 µM): 58%
- residual activity (NEK2 (human); compound 0.01 µM): 85%
- residual activity (MAPKAPK2 (human); compound 0.01 µM): 75%
- residual activity (AKT2 (human)): 77%
- residual activity (NEK6 (human); compound 0.01 µM): 104%
- residual activity (PAK4 (human); compound 0.01 µM): 33%
- residual activity (ROCK2 (human); compound 0.01 µM): 86%
- residual activity (CaMK1 (human); compound 0.01 µM): 86%
- residual activity (MAPK13 (human)): 94%
- residual activity (MAPK8 (human)): 79%
- residual activity (MAPK10 (human); compound 0.01 µM): 107%
- residual activity (MAPK9 (human); compound 0.01 µM): 92%
- residual activity (PRKCA (human); compound 0.01 µM): 6%
- residual activity (PLK1 (human); compound 0.01 µM): 76%
- residual activity (MYLK (human); compound 0.01 µM): 83%
- residual activity (DYRK3 (human); compound 0.01 µM): 84%
- residual activity (MELK (human); compound 0.01 µM): 53%
- residual activity (MARK3 (human)): 6%
- residual activity (CSNK1D (human); compound 0.01 µM): 96%
- residual activity (PKN2 (human)): 10%
- residual activity (PDPK1 (human); compound 0.01 µM, ATP 20 µM): 2%
- residual activity (PDPK1 (human); compound 0.01 µM, ATP 50 µM): 83%
- residual activity (PAK7 (human); compound 0.01 µM): 36%
- residual activity (RPS6KA5 KD1 KD2 (human); compound 0.01 µM): 68%
- residual activity (GSK3B (human); compound 0.01 µM): 77%
- residual activity (MAPK14 (human)): 105%
- residual activity (DYRK1A (human)): 90%
- residual activity (AURKB (human); compound 0.01 µM): 59%
- residual activity (PRKCG (human); compound 0.01 µM): 78%
- residual activity (AURKC (human); compound 0.01 µM): 71%
- residual activity [1]: 92%
- residual activity (EEF2K (human); compound 0.01 µM): 105%
- residual activity (MKNK1 (human); compound 0.01 µM): 85%
- residual activity (DYRK2 (human); compound 0.01 µM): 92%
- residual activity (HIPK3 (human); compound 0.01 µM): 116%
- residual activity (IKBKB (human); compound 0.01 µM): 86%
- residual activity (NEK7 (human); compound 0.01 µM): 99%
- residual activity (MAPKAPK3 (human); compound 0.01 µM): 107%
- residual activity (MKNK2 (human); compound 0.01 µM): 103%
SMILES: CN[C@@H]1C[C@@H]2O[C@@](C)([C@@H]1OC)n1c3ccccc3c3c4c(c5c6ccccc6n2c5c31)C(=O)N[C@@H]4O
- residual activity (MAPK15 (human); compound 0.01 µM): 92%

- residual activity (CAMKK1 (human); compound 1.0 µM): 93%
- residual activity (CAMKK1 (human); compound 10.0 µM): 62%
- residual activity (NEK2 (human); compound 1.0 µM): 91%
- residual activity (NEK2 (human); compound 10.0 µM): 100%
- residual activity (MAPKAPK2 (human); compound 1.0 µM): 84%
- residual activity (MAPKAPK2 (human); compound 10.0 µM): 60%
- residual activity (NEK6 (human); compound 10.0 µM): 75%
- residual activity (PAK4 (human); compound 1.0 µM): 92%
- residual activity (PAK4 (human); compound 10.0 µM): 49%
- residual activity (ROCK2 (human); compound 10.0 µM): 92%
- residual activity (CaMK1 (human); compound 1.0 µM): 43%
- residual activity (CaMK1 (human); compound 10.0 µM): 3%
- residual activity (MAPK10 (human); compound 1.0 µM): 88%
- residual activity (MAPK10 (human); compound 10.0 µM): 80%
- residual activity (MAPK9 (human); compound 1.0 µM): 105%
- residual activity (PRKCA (human); compound 1.0 µM): 108%
- residual activity (PRKCA (human); compound 10.0 µM): 87%
- residual activity (PLK1 (human); compound 1.0 µM): 79%
- residual activity (PLK1 (human); compound 10.0 µM): 90%
- residual activity (MYLK (human); compound 1.0 µM): 79%
- residual activity (MYLK (human); compound 10.0 µM): 11%
- residual activity (DYRK3 (human); compound 1.0 µM): 86%
- residual activity (DYRK3 (human); compound 10.0 µM): 75%
- residual activity (MELK (human); compound 1.0 µM): 80%
- residual activity (MELK (human); compound 10.0 µM): 68%
- residual activity (CSNK1D (human); compound 10.0 µM): 111%
- residual activity (PDPK1 (human); compound 1.0 µM, ATP 20 µM): 96%
- residual activity (PDPK1 (human); compound 1.0 µM, ATP 50 µM): 76%
- residual activity (PDPK1 (human); compound 10.0 µM, ATP 20 µM): 95%
- residual activity (PAK7 (human); compound 1.0 µM): 96%
- residual activity (PAK7 (human); compound 10.0 µM): 61%
- residual activity (RPS6KA5 KD1 KD2 (human); compound 1.0 µM): 81%
- residual activity (GSK3B (human); compound 1.0 µM): 89%
- residual activity (AURKB (human); compound 1.0 µM): 82%
- residual activity (AURKB (human); compound 10.0 µM): 60%
- residual activity (PRKCG (human); compound 1.0 µM): 105%
- residual activity (PRKCG (human); compound 10.0 µM): 96%
- residual activity (AURKC (human); compound 1.0 µM): 75%
- residual activity (AURKC (human); compound 10.0 µM): 66%
- residual activity (EEF2K (human); compound 1.0 µM): 93%
- residual activity (EEF2K (human); compound 10.0 µM): 40%
- residual activity (MKNK1 (human); compound 1.0 µM): 77%
- residual activity (MKNK1 (human); compound 10.0 µM): 84%
- residual activity (DYRK2 (human); compound 1.0 µM): 113%
- residual activity (DYRK2 (human); compound 10.0 µM): 118%
- residual activity (HIPK3 (human); compound 1.0 µM): 77%
- residual activity (HIPK3 (human); compound 10.0 µM): 66%
- residual activity (IKBKB (human); compound 10.0 µM): 90%
- residual activity (NEK7 (human); compound 1.0 µM): 91%
- residual activity (MAPKAPK3 (human); compound 1.0 µM): 86%
- residual activity (MAPKAPK3 (human); compound 10.0 µM): 71%
- residual activity (MKNK2 (human); compound 10.0 µM): 80%
SMILES: CC(C)(N)c1ccc(-c2nc3ccccc3nc2-c2ccccc2)cc1
- residual activity (MAPK15 (human); compound 10.0 µM): 71%
